Measured values reported in publication PMC5911928 (European journal of medicinal chemistry, 2017).
Converted amounts (≈) assume the structure as drawn. One block for each molecule: values may come before it.

Assays:
[1] = Human microsomal stability analysis; format: in vitro ADME; conditions: human liver microsomes
[2] = system: drug-resistant S. aureus clinical isolates; experiment: Anti-MRSA activity over the panel of S. aureus clinical isolates; format: cell-based, Staphylococcus aureus; conditions: against both MRSA and VRSA
[3] = system: B. subtilis; experiment: Bacterial Cytological Profiling; format: cell-based, Bacillus subtilis; conditions: for cell shape (BCP) in media containing MSM: LB-MSM, two hours, 4i 4 × MIC, oxacillin 5×MIC, D-cycloserine 1×MIC
[4] = system: J774 cells; experiment: MTS cytotoxicity analysis against murine macrophages; format: cell-based; conditions: MTS assay, tested at 8, 16, 32, 64 μg/mL
[5] = system: UDP-N-acetylmuramyl pentapeptide in S. aureus NRS107 (RN4220); experiment: Detection of final soluble cell wall precursor by HPLC/MS; format: cell-based, Staphylococcus aureus; conditions: 10 × MIC, 30 minutes
[6] = system: MRSA USA400; experiment: Time-kill assay; conditions: 4 × MIC, MRSA USA400, 37 °C, 24-hour incubation
[7] = system: MRSA USA400 inside infected murine macrophage (J774) cells; experiment: Eradication of intracellular MRSA in infected macrophages; conditions: 16 μg/mL, J774 cells infected with MRSA USA400
[8] = system: MRSA USA300; experiment: In vivo antibacterial activity in MRSA-infected C. elegans; set-up: species or system Caenorhabditis elegans; conditions: for reduction of the burden of MRSA USA300: C. elegans AU37, 20 μg/mL, 18 hours treatment
[9] = system: HaCaT cells; experiment: MTS cytotoxicity analysis against human keratinocytes; format: cell-based; conditions: MTS assay, tested at 8, 16, 32, 64 μg/mL
[10] = system: S. aureus NRS107 (RN4220); experiment: microbe, parasite or virus in culture; format: cell-based; conditions: Staphylococcus aureus
[11] = system: VRSA10; experiment: MIC/MBC broth microdilution; format: cell-based; conditions: Staphylococcus aureus
[12] = system: VRSA4; experiment: MIC/MBC broth microdilution; format: cell-based; conditions: Staphylococcus aureus
[13] = system: B. subtilis; experiment: MIC against B. subtilis; format: cell-based; conditions: Bacillus subtilis
[14] = pH 7.4, NADPH-Free CLint, without NADPH

microsomal CLint [1, 14]: < 9.6 µL/min/mg
SMILES: CCCCc1ccc(-c2nc(C)c(/C(C)=N/NC(=N)N)s2)cc1 [Compound 1a, reference compound]

SMILES: Cc1nc(-c2ccc3ccccc3c2)sc1-c1cnc(NC(=N)N)s1 [Compound 4i, 1-(4′-Methyl-2′-(naphthalen-2-yl)-[5,5′-bithiazol]-2-yl)guanidine]
MBC values relative to MIC values [2]: matched or were two-fold higher
effect on cells (BCP) ([3]; 5 × MIC, two hours of exposure): lysed
cell shape (BCP) in media containing MSM [3]: misshapen and formed small bulges
concentration up to which non-toxic [4]: 16000 ng/mL
peak of UDP-N-acetylmuramyl pentapeptide (accumulation) [5]: noticeable increase
time to completely eliminate MRSA cells [6]: four
reduction of MRSA CFU/mL in infected macrophages ([7]; four hours of treatment): unable to reduce
reduction of the burden of MRSA USA300 [8]: approximately 30%
reduction of MRSA burden relative to lead compound 1c and vancomycin ([8]; C. elegans, 20 μg/mL, 18 hours, same experimental conditions): three
microsomal CLint ([1]; pH 7.4, NADPH-Dependent CLint, with NADPH): 17.3 µL/min/mg
microsomal CLint [1, 14]: < 9.6 µL/min/mg
concentration up to which not toxic [9]: 32000 ng/mL

SMILES: CC(=O)NC[C@H]1CN(c2ccc(N3CCOCC3)c(F)c2)C(=O)O1 [Linezolid]
MIC [10]: 2 µg/mL (≈ 5.93 µM)
MIC [11]: 2 µg/mL (≈ 5.93 µM)
MIC [12]: 2 µg/mL (≈ 5.93 µM)

SMILES: CN[C@H](CC(C)C)C(=O)N[C@H]1C(=O)N[C@@H](CC(N)=O)C(=O)N[C@H]2C(=O)N[C@H]3C(=O)N[C@H](C(=O)N[C@H](C(=O)O)c4cc(O)cc(O)c4-c4cc3ccc4O)[C@H](O)c3ccc(c(Cl)c3)Oc3cc2cc(c3O[C@@H]2O[C@H](CO)[C@@H](O)[C@H](O)[C@H]2O[C@H]2C[C@](C)(N)[C@H](O)[C@H](C)O2)Oc2ccc(cc2Cl)[C@H]1O [Vancomycin, reference compound]
peak of UDP-N-acetylmuramyl pentapeptide (accumulation) [5]: noticeable increase
reduction of MRSA CFU in infected macrophages ([7]; 24 hours of treatment): not able to reduce
reduction of the burden of MRSA USA300 [8]: low reduction

MIC [13]: 0.47 µg/mL (≈ 1.08 µM)
SMILES: Cc1onc(-c2ccccc2Cl)c1C(=O)N[C@@H]1C(=O)N2[C@@H]1SC(C)(C)[C@@H]2C(=O)O [cloxacillin]

SMILES: Cc1onc(-c2ccccc2)c1C(=O)N[C@@H]1C(=O)N2[C@@H]1SC(C)(C)[C@@H]2C(=O)O [oxacillin, reference compound]
cell shape (BCP) in media containing MSM [3]: large bulges and misshapen cells

MIC [13]: 37.5 µg/mL (≈ 367 µM)
SMILES: N[C@@H]1CONC1=O [ᴅ-cycloserine]
